Patent US6127519A, “Calcitonin derivatives” (Tsumura & Co., priority 1990, dated 2000)
“And” between values parts separate entries of the source, which are not always exact repeats. Identical values can stand only once. Numbered stars: 1 amine (or outer) side, 2 acyl side, 3 side chain; on linkers, the order of the positions; unused ones are H or OH. Bridge positions count the residues as written; N and C are the ends. Square brackets hold non-standard residues; d marks the D form. Peptide text beside a SMILES is read from it. Suc = O=C(CCC(=O)[*:2])[*:1]; Orn = NCCC[C@H](N)C(=O)O

System: calcium concentration in the serum
Assay: Test 1: reduction of calcium level in serum after tail vein administration to rats
Assay type: in vivo, rats of the Wistar strain
Conditions: 1 ml/kg tail vein, female Wistar rats
Procedure: Six-weeks-old female rats of the Wistar strain (each group consisting of 4 rats) were used as the test animal, and the peptides of the present invention obtained in the examples given hereinafter were tested at concentrations adjusted with a 1% aqueous solution of sodium acetate (pH 4,0) to which 0.1% bovine serum albumin (BSA) was added. The solution was adjusted to a concentration of 166 μg/ml 830 ng/ml or 83 ng/ml and administered with the tail vein in an amount of 1 ml/kg. The back of the rat was fixed and blood was collected just before the administration, and at predetermined intervals after the administration, from the neck vein. The amount of blood collected each time was 0.3 ml. The sampled blood was subjected to centrifugal separation at 3500 rpm for 20 minutes to separate serum and the calcium content in the separated serum was measured by TBA-380 (supplied by Toshiba) using a Wako calcium-measuring kit (o-cpc method), and the ratio of reduction of the calcium concentration in the serum was determined.

[1] = concentration 83 ng/ml, 0 hour (just before administration)
[2] = concentration 83 ng/ml, 2 hours
[3] = concentration 83 ng/ml, 4 hours
[4] = concentration 83 ng/ml, 6 hours
[5] = concentration 830 ng/ml, 0 hour (just before administration)
[6] = concentration 830 ng/ml, 1 hour
[7] = concentration 830 ng/ml, 2 hours
[8] = concentration 830 ng/ml, 4 hours
[9] = concentration 830 ng/ml, 6 hours

Row | SMILES | Serum calcium level as percent of pre-dose baseline [1] | Serum calcium level as percent of pre-dose baseline (concentration 83 ng/ml, 1 hour) | Serum calcium level as percent of pre-dose baseline [2] | Serum calcium level as percent of pre-dose baseline [3] | Serum calcium level as percent of pre-dose baseline [4] | Serum calcium level as percent of pre-dose baseline [5] | Serum calcium level as percent of pre-dose baseline [6] | Serum calcium level as percent of pre-dose baseline [7] | Serum calcium level as percent of pre-dose baseline [8] | Serum calcium level as percent of pre-dose baseline [9]
1 | CC[C@H](C)[C@H](NC(=O)[C@H](C)NC(=O)[C@@H](NC(=O)[C@H](CCC(N)=O)NC(=O)[C@@H]1CCCN1C(=O)[C@H](Cc1ccc(O)cc1)NC(=O)[C@@H](NC(=O)[C@H](CCC(N)=O)NC(=O)[C@H](CC(C)C)NC(=O)[C@H](CCCCN)NC(=O)[C@H](Cc1c[nH]cn1)NC(=O)[C@H](CC(C)C)NC(=O)[C@H](CCC(=O)O)NC(=O)[C@H](CCC(N)=O)NC(=O)[C@H](CO)NC(=O)[C@H](CC(C)C)NC(=O)[C@H](CCCCN)NC(=O)CNC(=O)[C@H](CC(C)C)NC(=O)[C@H](CCSC)NC(=O)[C@@H]1CSSC[C@H](N)C(=O)NCC(=O)N[C@@H](CC(N)=O)C(=O)N[C@@H](CC(C)C)C(=O)N[C@@H](CO)C(=O)N[C@@H]([C@@H](C)O)C(=O)N1)[C@@H](C)O)[C@@H](C)O)C(=O)NCC(=O)N[C@H](C(=O)NCC(=O)N[C@@H](C)C(=O)N1CCC[C@H]1C(N)=O)C(C)C [Peptide No. 1] (H-CGNLSTCMLGKLSQELHKLQTYPQTAIGVGAP-NH2; disulfide 1-7) | 100.0% | 74.3% | 81.1% | 86.9% | 83.5% | 100.0% | 85.6% and 74.3% and 70.2% | 81.6% and 68.4% and 64.4% | 76.8% and 68.0% and 60.6% | 88.5% and 84.8% and 78.3%
2 | CC[C@H](C)[C@H](NC(=O)[C@H](C)NC(=O)[C@@H](NC(=O)[C@H](CCC(N)=O)NC(=O)[C@@H]1CCCN1C(=O)[C@H](Cc1ccc(O)cc1)NC(=O)[C@@H](NC(=O)[C@H](CCC(N)=O)NC(=O)[C@H](CCCCN)NC(=O)[C@H](Cc1c[nH]cn1)NC(=O)[C@H](CC(C)C)NC(=O)[C@H](CCC(=O)O)NC(=O)[C@H](CCC(N)=O)NC(=O)[C@H](CO)NC(=O)[C@H](CC(C)C)NC(=O)[C@H](CCCCN)NC(=O)CNC(=O)[C@H](CC(C)C)NC(=O)[C@H](CCSC)NC(=O)[C@@H]1CSSC[C@H](N)C(=O)NCC(=O)N[C@@H](CC(N)=O)C(=O)N[C@@H](CC(C)C)C(=O)N[C@@H](CO)C(=O)N[C@@H]([C@@H](C)O)C(=O)N1)[C@@H](C)O)[C@@H](C)O)C(=O)NCC(=O)N[C@H](C(=O)NCC(=O)N[C@@H](C)C(=O)N1CCC[C@H]1C(N)=O)C(C)C [Peptide No. 2] (H-CGNLSTCMLGKLSQELHKQTYPQTAIGVGAP-NH2; disulfide 1-7) | – | – | – | – | – | 100.0% | 86.7% | 87.7% | 92.8% | 90.1%
3 | CC[C@H](C)[C@H](NC(=O)[C@H](C)NC(=O)[C@@H](NC(=O)[C@H](CCC(N)=O)NC(=O)[C@@H]1CCCN1C(=O)[C@H](Cc1ccc(O)cc1)NC(=O)[C@@H](NC(=O)[C@H](CCC(N)=O)NC(=O)[C@H](CC(C)C)NC(=O)[C@H](CCCCN)NC(=O)[C@H](Cc1c[nH]cn1)NC(=O)[C@H](CC(C)C)NC(=O)[C@H](CCC(=O)O)NC(=O)[C@H](CCC(N)=O)NC(=O)[C@H](CO)NC(=O)[C@H](CC(C)C)NC(=O)[C@H](CCCCN)NC(=O)CNC(=O)[C@H](CC(C)C)NC(=O)[C@H](CC(C)C)NC(=O)[C@@H]1CCCCNC(=O)CCC(=O)N[C@@H](CC(N)=O)C(=O)N[C@@H](CC(C)C)C(=O)N[C@@H](CO)C(=O)N[C@@H]([C@@H](C)O)C(=O)N1)[C@@H](C)O)[C@@H](C)O)C(=O)NCC(=O)N[C@H](C(=O)NCC(=O)N[C@@H](C)C(=O)N1CCC[C@H]1C(N)=O)C(C)C [Peptide No. 26] (NLSTKLLGKLSQELHKLQTYPQTAIGVGAP-NH2; linker N-5 via Suc) | 100.0% | 78.9% | 67.6% | 70.4% | 75.2% | 100.0% | 73.9% | 62.9% | 52.1% | 48.2%
4 | CC[C@H](C)[C@H](NC(=O)[C@H](C)NC(=O)[C@@H](NC(=O)[C@H](CCC(N)=O)NC(=O)[C@@H]1CCCN1C(=O)[C@H](Cc1ccc(O)cc1)NC(=O)[C@@H](NC(=O)[C@H](Cc1c[nH]cn1)NC(=O)[C@H](Cc1ccccc1)NC(=O)[C@H](CCCCN)NC(=O)[C@H](CC(N)=O)NC(=O)[C@H](CC(C)C)NC(=O)[C@H](CC(=O)O)NC(=O)[C@H](CCC(N)=O)NC(=O)[C@H](CO)NC(=O)[C@H](CC(C)C)NC(=O)[C@H](CCCCN)NC(=O)CNC(=O)[C@H](CC(C)C)NC(=O)[C@H](CC(C)C)NC(=O)[C@@H]1CCCCNC(=O)CCC(=O)N[C@@H](CC(N)=O)C(=O)N[C@@H](CC(C)C)C(=O)N[C@@H](CO)C(=O)N[C@@H]([C@@H](C)O)C(=O)N1)[C@@H](C)O)[C@@H](C)O)C(=O)NCC(=O)N[C@H](C(=O)NCC(=O)N[C@@H](C)C(=O)N1CCC[C@H]1C(N)=O)C(C)C [Peptide No. 32] (NLSTKLLGKLSQDLNKFHTYPQTAIGVGAP-NH2; linker N-5 via Suc) | 100.0% | 82.4% | 76.1% | 79.1% | 84.1% | 100.0% | 84.5% | 73.6% | 65.9% | 64.2%
5 | CC[C@H](C)[C@H](NC(=O)[C@H](C)NC(=O)[C@@H](NC(=O)[C@H](CCC(N)=O)NC(=O)[C@@H]1CCCN1C(=O)[C@H](Cc1ccc(O)cc1)NC(=O)[C@H](CC(C)C)NC(=O)[C@H](CCCCN)NC(=O)[C@H](Cc1c[nH]cn1)NC(=O)[C@H](CC(C)C)NC(=O)[C@H](CCC(=O)O)NC(=O)[C@H](CCC(N)=O)NC(=O)[C@H](CO)NC(=O)[C@H](CC(C)C)NC(=O)[C@H](CCCCN)NC(=O)CNC(=O)[C@H](CC(C)C)NC(=O)[C@H](CCSC)NC(=O)[C@@H]1CSSC[C@H](N)C(=O)NCC(=O)N[C@@H](CC(N)=O)C(=O)N[C@@H](CC(C)C)C(=O)N[C@@H](CO)C(=O)N[C@@H]([C@@H](C)O)C(=O)N1)[C@@H](C)O)C(=O)NCC(=O)N[C@@H](CO)C(=O)NCC(=O)N[C@H](C(=O)N1CCC[C@H]1C(N)=O)[C@@H](C)O [Peptide No. 7] (H-CGNLSTCMLGKLSQELHKLYPQTAIGSGTP-NH2; disulfide 1-7) | – | – | – | – | – | 100.0% | 81.9% | 91.7% | 97.4% | 100.0%
6 | CC[C@H](C)[C@H](NC(=O)[C@H](C)NC(=O)[C@@H](NC(=O)[C@H](CCC(N)=O)NC(=O)[C@@H]1CCCN1C(=O)[C@H](Cc1ccc(O)cc1)NC(=O)[C@@H](NC(=O)[C@H](CCC(N)=O)NC(=O)[C@H](CC(C)C)NC(=O)[C@H](CCCCN)NC(=O)[C@H](Cc1c[nH]cn1)NC(=O)[C@H](CC(C)C)NC(=O)[C@H](CCC(=O)O)NC(=O)[C@H](CCC(N)=O)NC(=O)[C@H](CO)NC(=O)[C@H](CC(C)C)NC(=O)[C@H](CCCCN)NC(=O)CNC(=O)[C@H](CC(C)C)NC(=O)[C@H](CC(C)C)NC(=O)[C@@H]1CCCNC(=O)CC[C@H](N)C(=O)N[C@@H](CC(N)=O)C(=O)N[C@@H](CC(C)C)C(=O)N[C@@H](CO)C(=O)N[C@@H]([C@@H](C)O)C(=O)N1)[C@@H](C)O)[C@@H](C)O)C(=O)NCC(=O)N[C@H](C(=O)NCC(=O)N[C@@H](C)C(=O)N1CCC[C@H]1C(N)=O)C(C)C [Peptide No. 29] (H-ENLST[Orn]LLGKLSQELHKLQTYPQTAIGVGAP-NH2; lactam 1-6) | 100.0% | 84.6% | 91.7% | 83.2% | 76.6% | 100.0% | 75.0% | 84.7% | 78.0% | 73.1%
